For assay [1], the target named is T1, hCB2 (Homo sapiens, UniProt P34972).
T1 construct: host or cells: CHO-K1 beta-arrestin cells
In words: functional cAMP assay, hCB2. In kind it is cell-based. As to the method:
(§1) CHO-K1 beta-arrestin cells (DiscoveRx, Fremont, CA) expressing hCB2, mouse CB2 (mCB2), and human CB1 (hCB1) were cultured in F-12 Nutrient Mixture (HAM) supplemented with 10% fetal bovine serum (FBS), 300 μg/mL hygromycin and 800 μg/mL geneticin (G418). Cells were incubated in a humidified atmosphere at 37°C with 5% CO2.
(§2) cAMP was measured using cAMP-Nano-TRF detection kit (Roche Diagnostics, Penzberg, Germany). Cells were seeded 17–24 h prior to the experiment 3 × 10^4 cells per well in a black 96-well plate with flat clear bottom (Corning, Wiesbaden, Germany) in growth medium and incubated in 5% CO2 at 37°C in a humidified incubator. The growth medium was exchanged with Krebs Ringer bicarbonate buffer with 1 mmol/L 3-isobutyl-1-methylxanthine (IBMX), 0.1% fatty acid-free bovine serum albumin (BSA) and incubated at 30°C for 60 min. Agonist was added to a final assay volume of 100 μL and the mixture was incubated for 30 min at 30°C. The assay was stopped by the addition of 50 μL 3x lysis reagent and shaken for 2 h at room temperature. The time-resolved energy transfer was measured using an LF502 Nanoscan FLT (IOM, Berlin, Germany), equipped with a laser as excitation source. cAMP content was determined from the function of a standard curve spanning from 10 to 0.13 nmol/L cAMP.

The target of assay [2] is T2, mCB2 (Mus musculus, UniProt P47936).
T2 construct: host or cells: CHO-K1 beta-arrestin cells
The assay is described as follows: functional cAMP assay, mCB2. Format: cell-based. The following applies: CHO-K1 cells expressing mCB2. As to the method: as §1, §2

In assay [3] the target is T3, hCB1 (Homo sapiens, UniProt P21554).
T3 construct: host or cells: CHO-K1 beta-arrestin cells
In words: functional cAMP assay, hCB1 versus hCB2. In kind it is cell-based. The note with it: cAMP assays. As to the method:
as §1, §2

Assay [4] has as its target T1, hCB2. In words: radioligand binding assay with [^3H]CP55940, hCB2. As to the method:
as §1
(§3) Stably transfected cells were treated for 24 h with 5 mM butyrate in growth medium before harvesting, followed by homogenization in 15 mmol/L Hepes, 0.3 mmol/L EDTA, 1 mmol/L EGTA, 2 mmol/L MgCl2, complete EDTA-free protease inhibitor (Roche Applied Science, Rotkreuz, Switzerland), pH 7.4 using a glass potter and centrifugation at 47,800 g at 4°C for 30 min. The pellet was then rehomogenized twice in the same buffer and centrifuged (47,800 g, 4°C, 30 min). The final pellet was then resuspended in 75 mmol/L Tris, 0.3 mmol/L EDTA, 1 mmol/L EGTA, 12.5 mmol/L MgCl2, 250 mmol/L sucrose, pH 7.4 at a protein concentration of 1 to 3 mg/mL, aliquoted, frozen on dry ice and stored at −80°C. Saturation binding was performed with 0.05 to 2.6 nM [^3H]CP55940 (Perkin Elmer) and 1.0 μg of membrane protein. CP55940 (10 μM) was used to define non-specific binding. More than 95% of the total binding signal was specific. Assay buffer consisted of 50 mmol/L Tris-HCl, 5 mmol/L MgCl2, 2.5 mmol/L EGTA, and 0.1% fatty acid-free BSA, pH 7.4. Assays were initiated by addition of membranes in a final volume of 250 μL/well. Mixtures were incubated for 3 h at room temperature and then vacuum filtered and rinsed with wash buffer (50 mmol/L Tris-HCl, 5 mmol/L MgCl2, 2.5 mmol/L EGTA, and 0.5% fatty acid-free BSA, pH 7.4) on a Filtermate cell harvester through Packard GF/B filters presoaked in 0.3% polyethylenimine.
(§4) For competition binding, membrane preparations were incubated with 0.3 nM [^3H]CP55940 in the presence or absence of increasing concentrations of ligands for 60 min at 30°C in a final volume of 0.2 mL of 50 mmol/L Tris-HCl, 5 mmol/L MgCl2, 2.5 mmol/L EGTA, 0.1% fatty acid-free BSA, and 1% DMSO, pH 7.4, buffer, gently shaking. Non-specific binding was defined with 10 μM CP55940. All binding reactions were terminated by vacuum filtration onto 0.5% polyethylenimine presoaked GF/B filter plates (Packard) followed by seven brief washes with 2 mL of ice-cold binding buffer containing 0.5% fatty acid-free BSA. Plates were dried at 50°C for 1 h and liquid scintillation counting was used to determine bound radiolabel. IC50 values and Hill slopes were determined by a four parameter logistic model using ActivityBase (ID Business Solution, Guilford, UK). pKi values were determined by the generalized Cheng-Prusoff equation (Yung-Chi and Prusoff, [1973]).

Assay [5] concerns the target T3, hCB1. The assay is described as follows: radioligand binding assay with [^3H]CP55940, hCB1. As to the method:
as §1, §3, §4

Assay [6] addresses T2, mCB2. In words: radioligand binding assay with [^3H]CP55940, mCB2. The following applies: competition with [^3H]CP55940; read-out: mCB2 Ki. As to the method: as §1, §3, §4

SMILES strings stand for the structures.

T2 sequence (P47936 whole entry): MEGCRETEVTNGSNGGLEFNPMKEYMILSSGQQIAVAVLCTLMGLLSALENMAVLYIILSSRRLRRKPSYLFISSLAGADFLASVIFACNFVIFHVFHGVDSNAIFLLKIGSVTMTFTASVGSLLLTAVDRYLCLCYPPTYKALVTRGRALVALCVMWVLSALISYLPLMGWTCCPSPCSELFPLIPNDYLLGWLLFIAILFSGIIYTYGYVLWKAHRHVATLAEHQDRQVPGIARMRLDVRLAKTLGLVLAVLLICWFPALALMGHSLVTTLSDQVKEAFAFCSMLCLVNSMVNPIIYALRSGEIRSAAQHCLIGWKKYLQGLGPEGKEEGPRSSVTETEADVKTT
T1 sequence (P34972 whole entry): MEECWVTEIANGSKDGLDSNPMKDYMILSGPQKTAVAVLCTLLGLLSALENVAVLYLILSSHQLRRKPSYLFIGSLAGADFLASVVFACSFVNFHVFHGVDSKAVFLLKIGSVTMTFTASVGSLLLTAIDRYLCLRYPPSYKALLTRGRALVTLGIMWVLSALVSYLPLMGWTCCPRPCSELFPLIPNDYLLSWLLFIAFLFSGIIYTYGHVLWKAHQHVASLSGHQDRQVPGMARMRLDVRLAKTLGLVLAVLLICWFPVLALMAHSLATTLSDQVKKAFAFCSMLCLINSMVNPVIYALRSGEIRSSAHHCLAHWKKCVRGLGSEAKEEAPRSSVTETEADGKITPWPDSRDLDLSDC
T3 sequence (P21554 whole entry): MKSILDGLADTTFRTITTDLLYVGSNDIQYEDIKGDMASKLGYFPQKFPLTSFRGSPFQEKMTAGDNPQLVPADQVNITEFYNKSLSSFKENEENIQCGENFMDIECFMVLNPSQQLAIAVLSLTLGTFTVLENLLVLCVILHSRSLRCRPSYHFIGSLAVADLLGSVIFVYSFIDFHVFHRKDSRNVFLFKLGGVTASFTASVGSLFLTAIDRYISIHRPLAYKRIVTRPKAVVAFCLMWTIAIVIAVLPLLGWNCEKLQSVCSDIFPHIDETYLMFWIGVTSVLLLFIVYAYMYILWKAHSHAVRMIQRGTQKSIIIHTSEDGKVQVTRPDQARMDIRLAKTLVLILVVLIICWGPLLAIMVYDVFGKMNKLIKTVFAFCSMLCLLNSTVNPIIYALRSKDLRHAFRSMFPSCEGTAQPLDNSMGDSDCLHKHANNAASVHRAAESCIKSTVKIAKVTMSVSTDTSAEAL

`FCCOc1ccc2ncc(NCCCc3nc(-c4ccc(F)cc4Cl)no3)cc2c1` [MA3, 6-(2-Fluoroethoxy)-N-(3-(3-(2-chloro-4-fluorophenyl)-1,2,4-oxadiazol-5-yl)propyl)quinolin-3-amine]: in assay [1] (CHO-K1 cells expressing hCB2), the “hCB2 cAMP % eff (efficacy)” value is 102%. In addition, the EC50 came out at 0.13 nM in assay [1] (CHO-K1 cells expressing hCB2, read-out: hCB2 cAMP EC50) and 0.09 nM in assay [2] (read-out: mCB2 cAMP EC50). Moreover, the “functional behaviour in cAMP assay” value in assay [1] (hCB2) is reported as “agonists”. For the same compound, the “mCB2 cAMP % eff (efficacy)” value in assay [2] is reported as 101%. Also, in assay [3], the “EC50 ratio hCB1/hCB2” value stood at 563. Further, in assay [4] (Ki comparison), the “times higher hCB2 affinity compared to 12” value is “about 4”. Moreover, in assay [4] (Ki comparison), the “times higher hCB2 affinity compared to MA2” value is “about 100”. For the same compound, in assay [4] (Ki comparison), the “times higher hCB2 affinity compared to NE40” value is given as 5. Further, the Ki in assay [4] (competition with [^3H]CP55940, read-out: hCB2 Ki) was 0.8 nM; in assay [5] (competition with [^3H]CP55940, read-out: hCB1 Ki), 102 nM; in assay [6], 2.6 nM. Further, the “Ki ratio hCB1/hCB2” value in assay [5] (selectivity) is on record as 127.

Values taken from paper PMC5031696, “Synthesis, Biodistribution and In vitro Evaluation of Brain Permeable High Affinity Type 2 Cannabinoid Receptor Agonists [^11C]MA2 and [^18F]MA3” (Frontiers in Neuroscience, 2016).
